From US20230202992A1, “PHARMACEUTICAL COMPOSITION FOR PREVENTING OR TREATING SMALL-CELL LUNG CANCER ASSOCIATED WITH RON MUTANTS AND METHOD USING SAME” (WELLMARKER BIO CO., LTD., priority 2020, published 2023)

Key:
[1] = test system: H417 cell line (small cell lung cancer cell line of a mutation RONΔ155 type); experiment: Cell killing efficacy in small cell lung cancer cell line (PI staining, FACS); type: cell-based; settings: H417 cells (mRONΔ155), 1 μM, 72 hours, propidium iodide, FIG. 1
Protocol: The H417 cell line, which is a small cell lung cancer cell line of a mutation RONΔ155 type, was counted, and 2×10^5 cells were seeded in a 60 mm dish, respectively, and 24 hours later, treated with 1 μM of each of the compounds synthesized in Example 1 (WM-S1-030), Example 2, Example 3, Example 4, and Example 5 for 72 hours. As a positive control, a known RON inhibitor, BMS-777607 compound (1 μM), was used. BMS-777607 is N-{4-[(2-amino-3-chloro-4-pyridinyl)oxy]-3-fluorophenyl}-4-ethoxy-1-(4-fluorophenyl)-2-oxo-1,2-dihydro-3-pyridinecarboxamide, which is compound 1 disclosed in U.S. Pat. No. 8,536,200 B2. BMS-777607 is a well known RON inhibitor.
After 72 hours, all of the medium was transferred to a 15 mL conical tube and washed once with 1×PBS (phosphate buffered saline), and then the cells were harvested. Thereafter, the supernatant was removed by centrifugation at 1,000 rpm for 3 minutes, and propidium iodide (PI) was diluted in a FACS (Fluorescence-Activated Cell Sorting) buffer (PBS+2% FBS) at a ratio of 1:1000. The prepared buffer was added adequately depending on the number of cells, and then it was transferred to a FACS tube and reacted for 10 minutes. Thereafter, it was measured using a cytometer (FACS Analyzer).

cleaved caspase-3 = experiment: Protein expression change in tumor tissue of H417 transplanted animal model, immunochemical staining; type: in vivo; settings: H417 transplanted mouse model, 3 mpk, 10 mpk, 30 mpk, FIG. 3
Protocol: (§1) WM-S1-030 synthesized in Example 1 above was administered at each concentration (3 mpk, 10 mpk, 30 mpk) to a mouse model transplanted with the H417 cell line, which is a small cell lung cancer cell line of a mutation RONΔ155 type, and then the tumor was extracted, and the expression changes of the proteins were analyzed by immunochemical staining.
(§2) Specifically, paraffin slides were prepared using tissues isolated from the sacrificed mice. The tissue sections were deparaffinized and rehydrated, immersed in the target recovery buffer 1×(ScyTek Laboratories, Cat #CBB999) and heated for 15 minutes to perform an antigen recovery process. After the reaction, the tissue sections were washed in Tris buffered saline-0.05% Tween 20 (TBS-T)(T&I, BTT-9310) for 5 minutes, and then the reaction was performed with a non-specific antibody reaction blocking reagent (vector, SP-5035) for 1 hour.
(§3) The tissue sections were cultured at 4° C. overnight with mRON (Abcam, ab52927, 1:50), pTyr-mRON (Mybioscience, MBS462024, 1:100), cleaved caspase-3 (Asp175XR&D Systems, MAB835, 1:50) and then washed with TBS-T for 5 minutes, and then endogenous peroxidase activity was blocked using a peroxidase blocking reagent (Cellmarque, 925B-05). Thereafter, the tissue sections were washed with TBS-T for 5 minutes and then incubated with a rabbit secondary antibody (vector, PK-6101) at room temperature for 1 hour. […]

pTyr-mRON = experiment: as above; type: in vivo; settings: H417 transplanted mouse model, 3 mpk, 10 mpk, 30 mpk, FIG. 3
Protocol: as §1, §2, §3

[2] = test system: H417 cell line (mRONΔ155) transplanted tumor; experiment: Tumor growth inhibition in H417 cell line transplanted animal model; type: in vivo, mouse; settings: BALB/c-nude mice transplanted with H417, 30 mpk, oral, once a day for 3 weeks; FIG. 2
Protocol: It was confirmed whether tumor growth was inhibited by administering WM-S1-030 synthesized in Example 1 above at a dose of 30 mpk to a mouse model transplanted with the H417 cell line, which is a small cell lung cancer cell line of a mutation RONΔ155 type. Specifically, 5-week-old female BALB/c-nude mice were purchased and acclimatized for 1 week. Thereafter, H417 (5×10^6 cells/mouse), a small cell lung cancer cell line of a mutation RONΔ155 type, was diluted in PBS (phosphate buffered saline), and 100 μL was injected subcutaneously into the right dorsal side of the mouse. When the size of the tumor reached about 100 mm^3, WM-S1-030 was orally administered. At this time, the group orally administered with the vehicle was used as a negative control. The drug was administered once a day for 3 weeks, and the tumor size and body weight were measured twice a week. After the drug administration was completed, the mice were euthanized, the tumor was extracted, and the weight was measured.

Row | Structure (SMILES) | cell death (cell killing efficacy) [1] | expression of cleaved caspase-3 (cleaved caspase-3) | expression of pTyr-mRON (pTyr-mRON) | tumor growth [2]
1 | CCOc1ccn(-c2ccc(F)cc2)c(=O)c1C(=O)Nc1ccc(Oc2ccnc(N)c2Cl)c(F)c1 [BMS-777607, N-{4-[(2-amino-3-chloro-4-pyridinyl)oxy]-3-fluorophenyl}-4-ethoxy-1-(4-fluorophenyl)-2-oxo-1,2-dihydro-3-pyridinecarboxamide] | low |  |  | 
2 | CCOc1ccn(-c2ccc(F)cc2)c(=O)c1C(=O)Nc1ccc(Oc2ccnc3cc(-c4ccc(CN5CCOCC5)cn4)sc23)c(F)c1.Cl [Example 1, 4-ethoxy-N-[3-fluoro-4-({2-[5-(morpholinomethyl)pyridin-2-yl]thieno[3,2-b]pyridin-7-yl}oxy)phenyl]-1-(4-fluorophenyl)-2-oxo-1,2-dihydropyridine-3-carboxamide hydrochloride] |  | induced | decreased | significantly inhibited
